In one assay the test system is HCT-15. The assay is described as follows: cells. The format is cell-based, human. Particulars: 72 h. The procedure:
(§1) The CellTiter-Glo luminescent cell viability assay examining the impact of peptides on 22 different human cell lines was purchased from Reaction Biology Europe GmbH (Germany). Cells were cultured in different media (Table S1), seeded into a flat-bottom 96-well plate, and incubated at 37 °C. After overnight incubation, test compounds were added with 1% PBS/0.3% Tween 20 and the reference compound bortezomib was added with 0.1% DMSO. Negative controls were solvents alone, and positive control was 10 μM staurosporine. After 72 h of incubation at 37 °C, 5 or 10% CO2 (dependent on the medium), and 1 h equilibration at room temperature, well plates were treated with CellTiter-Glo reagent (Promega) for an hour and luminescence was measured using a luminometer.
(§2) Table S1. In vitro activity against 22 different human cancer cell lines.
(§3) Sr. Cancer Activity (in M)
(§4) no. Cell line type Culture medium
(§5) The effect of investigated compounds on the proliferation of 22 different human cell lines is
(§6) Twenty of these 22 cell lines represent specific cancer types and 2 were non-cancerous. Peptide
(§7) Anticancer drug bortezomib was used as the […]

In a further assay the test system is MDA MB 435. Nature of the assay: cells. Particulars: 72 h. The format is cell-based, human. The procedure: as §1, §2, §3, §4, §5, §6, §7
A further assay concerns OVCAR-3. Nature of the assay: cells. The assay is classed as cell-based, human. Conditions: 72 h. Here is the method:
as §1, §2, §3, §4, §5, §6, §7

The subject of a further assay is RPMI 8226. Nature of the assay: cells. The assay is classed as cell-based, human. Particulars: 72 h. Here is the method:
as §1, §2, §3, §4, §5, §6, §7

The test system of assay [1] is HL-60, K-562, MCF-7 and HCT-116 cells. Nature of the assay: Viability by flow cytometry DiOC6/7AAD staining, effect of pH and media. The assay is classed as cell-based, human. Particulars: 10 μM, 1 h; RPMI, DMEM, PBS at pH 8, 7, 6 and ∼7.6. The procedure:
To investigate the effect of pH and media on anticancer activity, we further tested the peptides against four cell lines, HL-60, K-562, and MCF-7, and the colon cancer cells HCT-116, cultured in three different media, namely, RPMI, DMEM, and PBS, each adjusted to three different pH values 8, 7, and 6, and additionally one case without pH adjustment (∼7.6) (Figure 6c). To avoid pH changes due to the natural buffering of the CO2-bicarbonate system used in cell culture, the peptides were tested at a concentration of 10 μM for only 1 h, as the cell lysis effect was already apparent within 30 min of exposure (Figure S9d).
Effects of pH and culture medium on the anticancer activity of peptides against acute myeloid leukemia HL-60, chronic myeloid leukemia K-562, breast adenocarcinoma MCF-7, and colon cancer cells HCT-116 cultured in three different media RPMI (#21875034, Gibco), DMEM (#LM-D1110/500, Biosera), and PBS adjusted to three different pH values 8, 7, and 6, and a medium without pH adjustment (∼7.6), were tested using flow cytometry DiOC6/7AAD (3,3-dihexyloxacarbocyanine iodide/7-amino-actinomycin D) staining assay, as described previously.[102] Media pH was adjusted twice, i.e., 1 day before the experiment and immediately before the experiment. Medium was supplemented with 10% heat-inactivated FBS, glutamine, sodium pyruvate, and antibiotics (100 U/mL penicillin and 100 μg/mL streptomycin). […] To determine cell viability, cells were incubated with DiOC6 (Thermo Fisher Scientific) and 7AAD (Thermo Fisher Scientific) for 15 min at 37 °C and cell viability was measured using a BriCyte E6 flow cytometer (Mindray); viable cells were considered as DiOC6-positive and 7AAD-negative.
The effect of pH on peptide activity in cancer cells was evaluated by the multiway ANOVA followed by Tukey post hoc test. Regarding the comparison of the effect of the medium, we analyzed the data from Figure 6c by comparing RPMI medium and DMEM of the same pH, and statistical significance was assessed using the multiway ANOVA followed by Tukey post hoc test. […]
(In general: In flow cytometry, cells or beads pass a laser one at a time.)

A further assay relates to E. coli (TOP10). Nature of the assay: Broth microdilution antimicrobial susceptibility assay. The assay is classed as cell-based, Escherichia coli. The essentials: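 Bacteria were grown on MHA for 24 h, subcultured in MHB for 6 h at 37 °C and diluted to 10^6 CFU/mL. Compounds were serially diluted from 50 to 0.1 μM, inoculated and incubated for 24 h at 37 °C. MIC was the lowest concentration with no visible turbidity.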
For orientation: In broth dilution the organism is exposed to a series of concentrations in liquid medium.

The IC50 is the concentration at which inhibition is half-maximal. By MIC is commonly meant the lowest concentration that inhibits growth of the organism.

Ends that are not written are not given here.

With “KKKKLKKILKKLFQFINQLDNQLQDIKQNK-NH2 [LP1]”, the IC50 in the assay on HCT-15 worked out at 4.7 µM; in the assay on MDA MB 435 it was 1.4 µM; in the assay on OVCAR-3 it was 4.9 µM; in the assay with RPMI 8226, 4.4 µM. For the same substance, the “Activity against cancer cells (cell viability) as a function of pH and medium” value in assay [1] was “pH-dependent activity”.

Substance “H-HHHHLKKILKKLFQFINQLDNQLQDIHHHH-OH [LP40]” showed an MIC against E. coli (TOP10) (24 h, MHB) of more than 50 µM. In the assay with E. coli (TOP10) (TOP10, 24 h, pH 6), the “MIC against E. coli (TOP10)” value was 0.4 µM. Besides, the IC50 amounted to 7.1 µM in the assay with HCT-15, 190 µM with MDA MB 435, 9 µM in the assay with OVCAR-3 and 5.6 µM in the assay on RPMI 8226. For the same substance, the “Activity against cancer cells (cell viability) as a function of pH and medium” value in assay [1] is “pH-dependent activity”.

“KKKKLKKILKKLFQFINQLDNQLQDIKKKK-NH2 [LP18]”: the “pH dependence of antimicrobial activity” value in the assay with E. coli (TOP10) (pH 8 and 6) was “independent of pH”.

(Values after paper PMC11345766, “Computational Design of Pore-Forming Peptides with Potent Antimicrobial and Anticancer Activities” (Journal of Medicinal Chemistry, 2024).)
